Patent publication US20190275040A1, “COMPOUNDS AND METHODS FOR TREATING OR PREVENTING ALZHEIMER'S DISEASE” (YALE UNIVERSITY, priority 2016, published 2019)

Experiments:
[1] = system: primary hippocampal neurons; experiment: Aβo-dependent dendritic spine loss in primary hippocampal neurons; assay type: cell-based, mouse; details: Aβo for 4 days
Text: FIGS. 11A-11H illustrate the finding that Aβo-induced dendritic spine deficits are prevented by deletion of Pyk2 and RhoA inhibition in primary neurons. FIG. 11A: Representative images of dendritic spine motility by standard deviation projection of time-lapse image. […] The standard deviation value for each pixel is shown by thermal color scale. Scale bar, 10 μm. FIG. 11B: Quantification of spine motility, expressed as % of changed area of spines with subtraction of changed area of dendritic shaft as background (changed area=(ΔAspine/Aspine×100)−(ΔAshaft/Ashaft×100)). […]
It was considered whether the acute effects of Aβo-induced, Pyk2-mediated decrease on spine motility might be translated into alteration in spine number over longer time periods. Dendritic spine density was measured in populations of vehicle and Aβo treated primary hippocampal neuron cultures. […]
Analysis and quantification of data were performed with Volocity software after max intensity projection. The numbers of dendritic spines were counted manually to estimate the density of primary or secondary dendritic branch by observer unaware of drug or genotype. For each condition, at least 3 dendrites were measured from each neuron and 5-7 neurons were imaged per coverslip. […]

[2] = system: cultured mouse hippocampal neurons; experiment: GFP-Pyk2 overexpression-induced dendritic spine loss in cultured hippocampal neurons; assay type: cell-based; details: PF-719 1 μM; Y27632 10 μM; DIV 17-21
Text: FIG. 7A: TBS-T soluble human Alzheimer's disease brain extracts were immunoblotted with anti-Pyk2 or anti-pY402 Pyk2 specific antibodies. FIG. 7B: Densitometric analysis of the immunoblots from FIG. A. p-Pyk2/Pyk2 ratio values were normalized to control mean value. Data are graphed as mean±SEM (Control, n=10; AD, n=10). *p<0.05 by Student's two-tailed t test. FIG. 7C: Representative immunofluorescent images of Pyk2 immunoreactivity from hippocampal CA1 in WT and Pyk2 null mice at 12-months age. […] FIG. 7D: Hek293T cells were co-transfected with either control vector or flag-tagged Fyn and GFP-tagged Pyk2 or K457A kinase dead mutant. Lysates were immunoblotted with anti-GFP (for GFP tagged Pyk2 and K457A mutant), anti-Fyn, and anti-pSFK antibodies. FIG. 7E: Representative GFP fluorescent images of cultured mouse hippocampal neurons. […] FIG. 7G: Quantification of dendritic spine density in the transfected neurons.
FIG. 10A: GST-RBD pull-down assay from Hek293T cell lysate from cells expressing indicated plasmids. […] FIG. 10B: Levels of RhoA-GTP (RBD pull-down) and RhoA-total (5% lysate) were quantified by densitometric measurement. […] FIG. 10D: Quantification of RhoA-GTP/total RhoA ratio by densitometric analysis. […] FIG. 10E: Representative GFP fluorescence images of the cultured hippocampal neurons. […] FIG. 10F: Quantification of dendritic spine density. […]

[3] = Brain and plasma levels after peripheral dosing (LC/MS/MS); assay type: in vivo, mouse
Experimental: In brain slices and in dissociated primary neuronal cultures, Aβo causes Fyn activation, Pyk2 activation, altered Glu-induced calcium signaling, dendritic spine loss and suppression of LTP. […] After developing LC/MS/MS methods to detect PF-719, the extent to which the Pyk2 inhibitor enters brain from peripheral dosing was determined. […] Continuous 25 mg/kg/d minipump i.p. infusion was chosen for treatment of APP/PS1 mice.

brain level above the Ki ([3]; 5 mg/kg, 90 min): 30 fold
Kp at 90 min ([3]; mouse, brain and plasma, other: i.p. or p.o., single dose 5 mg/kg i.p. or p.o., 90 min, read-out: brain level as share of plasma level): ~0.3
concentration at 90 min ([3]; mouse, brain, other: i.p. or p.o., single peripheral dose of 5 mg/kg i.p. or p.o., at 90 min): 450 ± 110 nM
half-life ([3]; mouse, in vivo, other: i.p. or p.o., single dose 5 mg/kg i.p. or p.o.): 6 h
Oral bioavailability ([3]; p.o. compared with i.p.): equal
Structure (SMILES): CCOc1ccc2nc(SCc3nc(N)nc(N4CCOCC4)n3)sc2c1 [PF-719, 4-(((6-ethoxybenzo[d]thiazol-2-yl)thio)methyl)-6-morpholino-1,3,5-triazin-2-amine]
Aβo dependent spine loss [1]: rescue fully Aβo dependent spine loss
GFP-Pyk2-induced spine loss [2]: partial rescue
